Test results taken from ChEMBL document CHEMBL1201862, “PubChem BioAssay data set” (2004).
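The compound was tested at five concentrations on cells cultured in 96-well plates, with a 48-hour exposure period. The concentration for 50% growth inhibition is given as GI50.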 Calls of active or inactive are those of the source. Rule as the data show it: active = GI50 up to about 1.1 µM and inactive = higher.

Legend:
Assay in all cases: inhibition of tumour cell growth, NCI panel, 48 h
786-0 = test system: 786-0
A549 = test system: A549
ACHN = test system: ACHN
BT-549 = test system: BT-549
CAKI-1 = test system: CAKI-1
COLO 205 = test system: COLO 205
DU-145 = test system: DU-145
EKVX = test system: EKVX
HCT-116 = test system: HCT-116
HCT-15 = test system: HCT-15
HL-60 = test system: HL-60
HOP-62 = test system: HOP-62
HOP-92 = test system: HOP-92
HT-29 = test system: HT-29
Hs-578T = test system: Hs-578T
IGROV-1 = test system: IGROV-1
K562 = test system: K562
KM12 = test system: KM12
LOX IMVI = test system: LOX IMVI
M14 = test system: M14
MCF7 = test system: MCF7
MDA-MB-231 = test system: MDA-MB-231
MDA-MB-435 = test system: MDA-MB-435
MOLT-4 = test system: MOLT-4
Malme-3M = test system: Malme-3M
NCI-H226 = test system: NCI-H226
NCI-H23 = test system: NCI-H23
NCI-H460 = test system: NCI-H460
NCI-H522 = test system: NCI-H522
NCI/ADR-RES = test system: NCI/ADR-RES
OVCAR-3 = test system: OVCAR-3
OVCAR-4 = test system: OVCAR-4
OVCAR-5 = test system: OVCAR-5
OVCAR-8 = test system: OVCAR-8
PC-3 = test system: PC-3
RXF 393 = test system: RXF 393
SF-268 = test system: SF-268
SF-295 = test system: SF-295
SF-539 = test system: SF-539
SK-MEL-28 = test system: SK-MEL-28
SK-MEL-2 = test system: SK-MEL-2
SK-MEL-5 = test system: SK-MEL-5
SK-OV-3 = test system: SK-OV-3
SN12C = test system: SN12C
SNB-19 = test system: SNB-19
SNB-75 = test system: SNB-75
SR = test system: SR
SW-620 = test system: SW-620
T47D = test system: T47D
TK-10 = test system: TK-10
U-251 = test system: U-251
UACC-257 = test system: UACC-257
UACC-62 = test system: UACC-62
UO-31 = test system: UO-31
A498 = test system: A498
CCRF-CEM = test system: CCRF-CEM
HCC 2998 = test system: HCC 2998
MDA-N = test system: MDA-N
RPMI-8226 = test system: RPMI-8226

Measured: GI50

O=C1/C(=N/N=C(c2ccccc2)c2ccccc2)c2ccccc2-c2ccccc21
37.8 µM: HCT-15
inactive: 786-0 > 100 µM | A549 > 100 µM | ACHN 65.9 µM | BT-549 65 µM | CAKI-1 37.6 µM | COLO 205 > 100 µM | DU-145 > 100 µM | EKVX > 100 µM | HCT-116 52.1 µM | HL-60 > 100 µM | HOP-62 > 100 µM | HOP-92 25.2 µM | HT-29 > 100 µM | Hs-578T 29.6 µM | IGROV-1 73.1 µM | K562 > 100 µM | KM12 > 100 µM | LOX IMVI 56.4 µM | M14 > 100 µM | MCF7 > 100 µM | MDA-MB-231 31.6 µM | MDA-MB-435 > 100 µM | MOLT-4 22.5 µM | Malme-3M 78.5 µM | NCI-H226 38.5 µM | NCI-H23 74 µM | NCI-H460 > 100 µM | NCI-H522 54.8 µM | NCI/ADR-RES 54 µM | OVCAR-3 40.8 µM | OVCAR-4 77.3 µM | OVCAR-5 > 100 µM | OVCAR-8 > 100 µM | PC-3 64 µM | RXF 393 > 100 µM | SF-268 > 100 µM | SF-295 64 µM | SF-539 > 100 µM | SK-MEL-28 > 100 µM | SK-MEL-2 > 100 µM | SK-MEL-5 99.5 µM | SK-OV-3 > 100 µM | SN12C 71.1 µM | SNB-19 > 100 µM | SNB-75 > 100 µM | SR 51.2 µM | SW-620 > 100 µM | T47D 32.8 µM | TK-10 75.5 µM | U-251 85.7 µM | UACC-257 > 100 µM | UACC-62 55.2 µM | UO-31 45.5 µM

C[C@]12CC[C@H](O[C@@H]3O[C@H](CO[C@@H]4O[C@H](CO)[C@@H](O)[C@H](O)[C@H]4O)[C@@H](O)[C@H](O)[C@H]3O)C[C@@H]1CC[C@@H]1[C@@H]2CC[C@]2(C)[C@@H](C3=CC(=O)OC3)CC[C@]12O [UZARIN]
inactive: 786-0 43.6 µM | A498 24.9 µM | A549 5.33 µM | ACHN 8.57 µM | BT-549 6.71 µM | CAKI-1 13.7 µM | CCRF-CEM 4.07 µM | COLO 205 50.1 µM | DU-145 13.3 µM | EKVX 17.7 µM | HCC 2998 21.9 µM | HCT-116 9.06 µM | HL-60 20.2 µM | HOP-62 13.7 µM | HOP-92 29.4 µM | HT-29 35.8 µM | Hs-578T 19.5 µM | IGROV-1 10.7 µM | K562 24.2 µM | KM12 47.8 µM | LOX IMVI 22.1 µM | M14 24.8 µM | MDA-MB-231 > 80.2 µM | MDA-MB-435 31.8 µM | MDA-N 29 µM | MOLT-4 4.02 µM | Malme-3M 17.5 µM | NCI-H226 42.2 µM | NCI-H23 11.1 µM | NCI-H460 7.29 µM | NCI-H522 7.91 µM | NCI/ADR-RES 15.4 µM | OVCAR-3 23.3 µM | OVCAR-4 17.3 µM | OVCAR-5 27.4 µM | OVCAR-8 31.8 µM | PC-3 28.2 µM | RPMI-8226 43.4 µM | RXF 393 12.5 µM | SF-268 11 µM | SF-295 17.3 µM | SF-539 15.5 µM | SK-MEL-28 > 80 µM | SK-MEL-2 36.4 µM | SK-MEL-5 4.62 µM | SK-OV-3 35.3 µM | SN12C 20.1 µM | SNB-19 38.9 µM | SNB-75 28.4 µM | SR 6.25 µM | SW-620 31.6 µM | T47D 31.1 µM | TK-10 18.8 µM | U-251 39.7 µM | UACC-257 31.3 µM | UACC-62 33.7 µM | UO-31 25.1 µM
18.2 µM: HCT-15
